Results taken from ChEMBL document CHEMBL1681643 (Bioorg Med Chem Lett, 2011).
Converted amounts (≈) assume the structure as drawn. The source made the active and inactive calls. The rule behind the calls is not given here. Non-standard residues stand in square brackets, D forms with d. Residues, ends and D or L forms follow the SMILES beside them. *: point of attachment. S(CH2)2OCO2(CPT-20-yl) = CC[C@@]1(OC(=O)OCCS*)C(=O)OCc2c1cc1n(c2=O)Cc2cc3ccccc3nc2-1; Ahx = NCCCCCC(=O)O

Legend:
[1] = tested on: MCF7; test: Anticancer activity against NK1R overexpressing human MCF7 cells assessed as cell viability after 72 hrs by MTT assay; format: functional, cell-based
[2] = tested on: CHO; test: Cytotoxicity against NK1R overexpressing CHO cells assessed as cell viability after 72 hrs by MTT assay; format: functional, cell-based; settings: Cricetulus griseus
[3] = tested on: MDA-MB-231; test: Anticancer activity against NK1R overexpressing human MDA-MB-231 cells assessed as cell viability after 72 hrs by MTT assay; format: functional, cell-based
[4] = tested on: CHO; test: Drug uptake in NK1R overexpressing CHO cells at 10 uM after 30 mins by confocal microscopy; format: ADME, cell-based, Cricetulus griseus; settings: chinese hamster, 0.5 h
[5] = tested on: U-251; test: Anticancer activity against NK1R overexpressing human U251MG cells assessed as cell viability after 72 hrs by MTT assay; format: functional, cell-based
[6] = tested on: CHO; test: Cytotoxicity against CHO cells assessed as cell proliferation after 72 hrs by MTT assay; format: cell-based, Cricetulus griseus; settings: chinese hamster
[7] = tested on: U-87MG ATCC; test: Anticancer activity against NK1R overexpressing human U87MG cells assessed as cell viability after 72 hrs by MTT assay; format: functional, cell-based
[8] = tested on: CHO; test: Drug uptake in CHO cells at 10 uM after 30 mins by confocal microscopy; format: ADME, cell-based, Cricetulus griseus; settings: chinese hamster, 0.5 h
[9] = Solubility of the compound in phosphate buffer at pH 7.4; format: physicochemical
[10] = tested on: CHO; test: Cytotoxicity against CHO cells assessed as cell viability after 72 hrs by MTT assay; format: cell-based, Cricetulus griseus; settings: chinese hamster

| Structure (SMILES) | Activity [1] | Activity [2] | Activity [3] | Drug uptake [4] | Activity [5] | Activity [6] | Activity [7] | Drug uptake [8] | solubility [9] | Activity [10] |
| --- | --- | --- | --- | --- | --- | --- | --- | --- | --- | --- |
| CC[C@@]1(OC(=O)OCCSSC[C@H](N)C(=O)N[C@@H](CCCNC(=N)N)C(=O)N2CCC[C@H]2C(=O)N[C@@H](CCCCN)C(=O)N2CCC[C@H]2C(=O)N[C@@H](CCC(N)=O)C(=O)N[C@@H](CCC(N)=O)C(=O)N[C@@H](Cc2ccccc2)C(=O)N[C@@H](Cc2ccccc2)C(=O)NCC(=O)N[C@@H](CC(C)C)C(=O)N[C@@H](CCSC)C(N)=O)C(=O)OCc2c1cc1n(c2=O)Cc2cc3ccccc3nc2-1 | Dose-dependent effect | Active | Dose-dependent effect | Active | Dose-dependent effect | Not Active | Dose-dependent effect | Active | 103 µg/mL (≈ 54.2 µM) | – |
| CC[C@@]1(OC(=O)OCCSSC[C@H](N)C(=O)NCCCCCC(=O)N[C@@H](CCC(N)=O)C(=O)N[C@@H](Cc2ccccc2)C(=O)N[C@@H](Cc2ccccc2)C(=O)NCC(=O)N[C@@H](CC(C)C)C(=O)N[C@@H](CCSC)C(N)=O)C(=O)OCc2c1cc1n(c2=O)Cc2cc3ccccc3nc2-1 (H-C(S(CH2)2OCO2(CPT-20-yl))[Ahx]QFFGLM-NH2) | Dose-dependent effect | Active | Dose-dependent effect | Active | Dose-dependent effect | Not Active | Dose-dependent effect | Active | 8.4 µg/mL (≈ 5.97 µM) | – |
| CSCC[C@H](NC(=O)[C@H](CC(C)C)NC(=O)CNC(=O)[C@H](Cc1ccccc1)NC(=O)[C@H](Cc1ccccc1)NC(=O)[C@H](CCC(N)=O)NC(=O)CCCCCNC(=O)[C@@H](N)CS)C(N)=O (H-C[Ahx]QFFGLM-NH2) | inactive | – | inactive | – | inactive | – | inactive | – | – | – |
| CC[C@@]1(O)C(=O)OCc2c1cc1n(c2=O)Cc2cc3ccccc3nc2-1 [CAMPTOTHECIN] | Dose-dependent effect | – | Dose-dependent effect | Active | Dose-dependent effect | – | Dose-dependent effect | Active | 2.7 µg/mL (≈ 7.75 µM) | Toxic |
